Experimental findings from ChEMBL document CHEMBL1152605, “Novel 7H-pyrrolo[2,3-d]pyrimidine derivatives as potent and orally active STAT6 inhibitors” (Bioorg Med Chem, 2009) are described below.

The target in data set [1] is T1, Signal transducer and activator of transcription 6 (Homo sapiens, UniProt P42226).
T1 sequence (P42226 whole entry): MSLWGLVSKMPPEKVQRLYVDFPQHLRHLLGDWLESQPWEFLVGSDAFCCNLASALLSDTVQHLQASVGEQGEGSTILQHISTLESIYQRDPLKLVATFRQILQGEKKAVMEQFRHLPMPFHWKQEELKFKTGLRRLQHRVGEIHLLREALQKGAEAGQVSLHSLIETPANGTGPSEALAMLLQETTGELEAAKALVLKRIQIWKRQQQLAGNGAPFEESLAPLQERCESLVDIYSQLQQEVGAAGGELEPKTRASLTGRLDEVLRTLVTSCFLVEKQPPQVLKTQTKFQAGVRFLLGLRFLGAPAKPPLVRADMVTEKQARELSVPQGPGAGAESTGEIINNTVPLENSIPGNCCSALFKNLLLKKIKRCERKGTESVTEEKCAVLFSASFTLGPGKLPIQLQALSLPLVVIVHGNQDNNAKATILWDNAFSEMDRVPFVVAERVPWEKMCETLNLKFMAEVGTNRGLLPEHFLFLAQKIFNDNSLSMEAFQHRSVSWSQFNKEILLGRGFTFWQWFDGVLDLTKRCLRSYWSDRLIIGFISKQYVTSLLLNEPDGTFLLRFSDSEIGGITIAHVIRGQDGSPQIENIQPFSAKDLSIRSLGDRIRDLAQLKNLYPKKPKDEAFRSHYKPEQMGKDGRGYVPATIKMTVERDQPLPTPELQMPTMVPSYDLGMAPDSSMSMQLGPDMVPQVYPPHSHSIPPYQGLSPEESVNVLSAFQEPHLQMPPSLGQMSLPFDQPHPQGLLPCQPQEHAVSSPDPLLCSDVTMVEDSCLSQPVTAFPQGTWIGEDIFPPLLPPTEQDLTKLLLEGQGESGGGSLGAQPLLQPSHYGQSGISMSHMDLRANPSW
Description: Inhibition of STAT6 in IL4-stimulated human FW4 reporter cells by luciferase assay.

The target in data set [2] is T2, CYP3A4 (Homo sapiens, UniProt P08684). Description: Inhibition of CYP3A4 in human liver microsomes assessed as residual activity at 5 uM. The conditions noted are these: read-out: Activity. It is filed as ADME, Microsome.
The target in data set [3] is T2, CYP3A4. In words: Inhibition of CYP3A4 in human liver microsomes assessed as residual activity at 5 uM after 30 mins. In kind it is ADME, Microsome. The conditions noted are these: read-out: Activity.
The species named for data set [4] is Mus musculus. Description: Antiasthmatic activity in OVA-induced pulmonary eosinophila BALB/c mouse model assessed as suppression of eosinophil infiltration in lung treated 30 mins before and 24, 48 hrs after OVA challenge. In kind it is functional, organism-based.
Data set [5] has as its system T-cell. In words: Inhibition of IL4 production in C57BL/6 mouse T cell after 16 hrs by T cell differentiation assay. In kind it is functional, cell-based. Conditions: C57BL/6, T-cell.

T2 sequence (P08684 whole entry): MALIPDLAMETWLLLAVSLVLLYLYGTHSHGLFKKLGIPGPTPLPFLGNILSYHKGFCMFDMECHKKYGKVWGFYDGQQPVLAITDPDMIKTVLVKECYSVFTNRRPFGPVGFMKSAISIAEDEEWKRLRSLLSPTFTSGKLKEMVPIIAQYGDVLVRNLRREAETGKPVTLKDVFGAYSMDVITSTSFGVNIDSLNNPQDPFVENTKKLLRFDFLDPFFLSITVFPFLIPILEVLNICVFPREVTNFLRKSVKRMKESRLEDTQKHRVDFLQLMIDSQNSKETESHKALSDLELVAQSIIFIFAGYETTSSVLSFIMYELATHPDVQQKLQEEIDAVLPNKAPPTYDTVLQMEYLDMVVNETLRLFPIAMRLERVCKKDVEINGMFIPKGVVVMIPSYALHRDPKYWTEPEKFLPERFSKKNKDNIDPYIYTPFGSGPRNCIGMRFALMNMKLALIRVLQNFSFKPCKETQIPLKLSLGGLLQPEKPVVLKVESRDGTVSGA

As usually defined, the IC50 is the midpoint of a concentration-inhibition curve. Read a high IC50 as weaker potency in that assay. With `c1ccc(CN2CCc3cnc(Nc4ccc(N5CCOCC5)cc4)nc32)cc1`, the IC50 in data set [1] amounted to 8300 nM.

In the case of `Fc1ccccc1Cn1ccc2cnc(Nc3ccc(N4CCOCC4)cc3)nc21`, in data set [2], the activity at 5 µM was found to be 78%. Besides, the activity at 0.5 h, 5 µM in data set [3] worked out at 32%. This compound showed a 50% inhibitory concentration (IC50) in data set [1] of 220 nM.

As for `NC(=O)c1cnc(Nc2ccc(N3CCOCC3)cc2)nc1NCc1ccccc1`, the IC50 in data set [1] is 6.5 nM.

On to `O=C(O)CN1CCN(c2ccc(Nc3ncc4ccn(Cc5cc(F)cc(F)c5)c4n3)cc2)CC1`, for which, in data set [2], the activity at 5 µM was found to be 100%. The activity at 0.5 h, 5 µM in data set [3] was found to be 98%. The compound also displayed a 50% inhibitory concentration (IC50) in data set [1] of 26 nM.

In the case of `CN1CCN(c2ccc(Nc3ncc4ccn(Cc5cc(F)cc(F)c5)c4n3)cc2)CC1`, the activity at 5 µM in data set [2] worked out at 90%. The activity at 0.5 h, 5 µM in data set [3] was 88%. Also, the midpoint of inhibition in data set [1], the IC50, lay at 3.2 nM.

In the case of `NCCN1CCN(c2ccc(Nc3ncc4ccn(Cc5cc(F)cc(F)c5)c4n3)cc2)CC1`, the activity at 5 µM in data set [2] turned out to be 65%. Besides, in data set [3], the activity at 0.5 h, 5 µM was found to be 105%. The same compound yielded an IC50 in data set [1] of 34 nM.

Turning to `Fc1cc(F)cc(Cn2ccc3cnc(Nc4ccc(N5CCOCC5)cc4)nc32)c1`, the activity at 5 µM in data set [2] was determined as 80%. For the same compound, the activity at 0.5 h, 5 µM in data set [3] amounted to 37%. In data set [1], this compound gave a concentration for half-maximal inhibition (IC50) of 120 nM.

As for `Fc1ccc(Cn2ccc3cnc(Nc4ccc(N5CCOCC5)cc4)nc32)cc1`, in data set [2], the activity at 5 µM stood at 82%. In addition, the activity at 0.5 h, 5 µM in data set [3] is 43%. Moreover, half-maximal inhibition in data set [1] (IC50) was put at 4100 nM.

`Fc1cccc(Cn2ccc3cnc(Nc4ccc(N5CCOCC5)cc4)nc32)c1`: the activity at 5 µM in data set [2] was 97%. The activity at 0.5 h, 5 µM in data set [3] was found to be 56%. In data set [1], this compound yielded a concentration for half-maximal inhibition (IC50) of 37 nM.

For the compound `Fc1cc(F)cc(Cn2ccc3cnc(Nc4ccc(N5CCNCC5)cc4)nc32)c1`, the activity at 5 µM in data set [2] stood at 74%. For the same compound, the activity at 0.5 h, 5 µM in data set [3] was determined as 95%. For the same compound, it took 12 nM to reach half-maximal inhibition in data set [1] (IC50).

`NC(=O)CN1CCN(c2ccc(Nc3ncc4ccn(Cc5cc(F)cc(F)c5)c4n3)cc2)CC1`: in data set [2], the activity at 5 µM worked out at 104%. Also, the Activity entry in data set [4] is “Dose-dependent effect”. For the same compound, the activity at 0.5 h, 5 µM in data set [3] was 85%. Also, the results for the 50% inhibitory concentration (IC50) in data set [5] and in data set [1] were 2.4 nM and 1.9 nM, respectively.

With `OCCN1CCN(c2ccc(Nc3ncc4ccn(Cc5cc(F)cc(F)c5)c4n3)cc2)CC1`, the activity at 5 µM in data set [2] amounted to 86%. The activity at 0.5 h, 5 µM in data set [3] is 86%. This compound also showed an IC50 in data set [1] of 5.6 nM.

For the compound `c1ccc(Cn2ccc3cnc(Nc4ccc(N5CCOCC5)cc4)nc32)cc1`, the activity at 5 µM in data set [2] is 88%. Besides, in data set [3], the activity at 0.5 h, 5 µM amounted to 34%. For the same compound, the IC50 in data set [1] stood at 400 nM.

For `CNC(=O)CN1CCN(c2ccc(Nc3ncc4ccn(Cc5cc(F)cc(F)c5)c4n3)cc2)CC1`, the activity at 5 µM in data set [2] was found to be 85%. For the same compound, the activity at 0.5 h, 5 µM in data set [3] was 77%. The compound also registered an IC50 in data set [1] of 4.7 nM.

In the case of `NC(=O)c1cnc(Nc2ccc(N3CCOCC3)cc2)nc1NCc1c(F)ccc(F)c1F`, the activity at 5 µM in data set [2] was found to be 100%. In data set [3], the activity at 0.5 h, 5 µM is 31%. Also, in data set [1], the IC50 is 0.7 nM.
